Experimental data reported in ChEMBL document CHEMBL1129214, “Synthesis and structure-activity relationship of C-3 quaternary ammonium cephalosporins exhibiting anti-MRSA activities” (1997).
Values after ≈ are worked out from the molar mass of the structure shown.

Assays:
Type in all cases: functional
Staphylococcus aureus [1] = experiment: In vitro activity against MRSA (A27217; heterogeneous strain) by standard broth dilution method
Staphylococcus aureus [2] = experiment: In vitro activity against MRSA (A27223; homogeneous strain) by standard broth dilution method
Staphylococcus aureus [3] = experiment: In vitro activity against MRSA (A27226; homogeneous strain) by standard broth dilution method
Staphylococcus aureus [4] = experiment: In vitro activity against MRSA (A27621; homogeneous strain) by standard broth dilution method
Staphylococcus aureus [5] = experiment: In vitro activity against MSSA (A15090) by standard broth dilution method
Staphylococcus aureus [6] = experiment: In vitro activity against MSSA (A20241) by standard broth dilution method
[7] = In vivo inhibitory activity of compound against staphylococcus aureus; settings: read-out: PD50
[8] = In vivo inhibitory activity of compound against staphylococcus aureus; […]; settings: read-out: PD50
[9] = Staphylococcus aureus, read-out: MIC

| SMILES | MIC (Staphylococcus aureus [1]; [9]) | MIC (Staphylococcus aureus [2]; [9]) | MIC (Staphylococcus aureus [3]; [9]) | MIC (Staphylococcus aureus [4]; [9]) | MIC (Staphylococcus aureus [5]; [9]) | MIC (Staphylococcus aureus [6]; [9]) | MIC (Staphylococcus aureus [1]) | MIC (Staphylococcus aureus [2]) | MIC (Staphylococcus aureus [3]) | MIC (Staphylococcus aureus [4]) | MIC (Staphylococcus aureus [5]) | MIC (Staphylococcus aureus [6]) | ED50 [7] | ED50 [8] |
| --- | --- | --- | --- | --- | --- | --- | --- | --- | --- | --- | --- | --- | --- | --- |
| C[N+]1(CC2=C(C(=O)[O-])N3C(=O)[C@@H](NC(=O)CSc4cc(Cl)ccc4Cl)[C@H]3SC2)[C@@H]2CC[C@H]1C[C@@H](O)C2 (stereo in doubt; 6s) | – | – | – | – | – | – | 1 µg/mL (≈ 1.75 µM) | 4 µg/mL (≈ 6.99 µM) | 4 µg/mL (≈ 6.99 µM) | 2 µg/mL (≈ 3.49 µM) | 0.125 µg/mL (≈ 0.218 µM) | 0.125 µg/mL (≈ 0.218 µM) | 9.5 mg/kg | – |
| O=C(CSc1cc(Cl)ccc1Cl)N[C@@H]1C(=O)N2C(C(=O)[O-])=C(C[N+]34CCC(CC3)CC4)CS[C@H]12 | 2 µg/mL (≈ 3.69 µM) | 2 µg/mL (≈ 3.69 µM) | 4 µg/mL (≈ 7.37 µM) | 4 µg/mL (≈ 7.37 µM) | 1 µg/mL (≈ 1.84 µM) | 1 µg/mL (≈ 1.84 µM) | – | – | – | – | – | – | – | – |
| C[N+]1(CC2=C(C(=O)[O-])N3C(=O)[C@@H](NC(=O)CSc4cc(Cl)ccc4Cl)[C@H]3SC2)C2CCCC1CC2 (stereo partly drawn) | 2 µg/mL (≈ 3.59 µM) | 2 µg/mL (≈ 3.59 µM) | 2 µg/mL (≈ 3.59 µM) | 2 µg/mL (≈ 3.59 µM) | 0.25 µg/mL (≈ 0.449 µM) | 0.25 µg/mL (≈ 0.449 µM) | – | – | – | – | – | – | – | – |
| C[N+]1(CC2=C(C(=O)[O-])N3C(=O)[C@@H](NC(=O)CSc4cc(Cl)ccc4Cl)[C@H]3SC2)C2CCC1CC(=O)C2 (stereo partly drawn) | 2 µg/mL (≈ 3.51 µM) | 4 µg/mL (≈ 7.01 µM) | 4 µg/mL (≈ 7.01 µM) | 4 µg/mL (≈ 7.01 µM) | 0.5 µg/mL (≈ 0.876 µM) | 0.5 µg/mL (≈ 0.876 µM) | – | – | – | – | – | – | – | – |
| NC(=O)c1ccc2n(cc[n+]2CC2=C(C(=O)[O-])N3C(=O)[C@@H](NC(=O)CSc4cc(Cl)ccc4Cl)[C@H]3SC2)c1 | 2 µg/mL (≈ 3.38 µM) | 2 µg/mL (≈ 3.38 µM) | 2 µg/mL (≈ 3.38 µM) | 2 µg/mL (≈ 3.38 µM) | 0.5 µg/mL (≈ 0.844 µM) | 1 µg/mL (≈ 1.69 µM) | – | – | – | – | – | – | – | – |
| C[N+]1(CC2=C(C(=O)[O-])N3C(=O)[C@@H](NC(=O)CSc4cc(Cl)ccc4Cl)[C@H]3SC2)[C@@H]2CC[C@H]1C[C@@H](O)C2 (stereo in doubt; 6r) | 1 µg/mL (≈ 1.75 µM) | 2 µg/mL (≈ 3.49 µM) | 2 µg/mL (≈ 3.49 µM) | 2 µg/mL (≈ 3.49 µM) | 0.25 µg/mL (≈ 0.437 µM) | 0.25 µg/mL (≈ 0.437 µM) | – | – | – | – | – | – | – | 0.8 mg/kg |
| O=C(CSc1cc(Cl)ccc1Cl)N[C@@H]1C(=O)N2C(C(=O)[O-])=C(C[N+]34CN5CN(CN(C5)C3)C4)CS[C@H]12 | 4 µg/mL (≈ 7 µM) | 8 µg/mL (≈ 14 µM) | 8 µg/mL (≈ 14 µM) | 8 µg/mL (≈ 14 µM) | 0.125 µg/mL (≈ 0.219 µM) | 0.125 µg/mL (≈ 0.219 µM) | – | – | – | – | – | – | – | – |
| O=C(CSc1cc(Cl)ccc1Cl)N[C@@H]1C(=O)N2C(C(=O)[O-])=C(C[N+]34CCN(CC3)CC4)CS[C@H]12 | 2 µg/mL (≈ 3.68 µM) | 4 µg/mL (≈ 7.36 µM) | 4 µg/mL (≈ 7.36 µM) | 4 µg/mL (≈ 7.36 µM) | 0.25 µg/mL (≈ 0.46 µM) | 0.5 µg/mL (≈ 0.92 µM) | – | – | – | – | – | – | – | 0.8 mg/kg |
| NCC(=O)NC1C[N+]2(CC3=C(C(=O)[O-])N4C(=O)[C@@H](NC(=O)CSc5cc(Cl)ccc5Cl)[C@H]4SC3)CCC1CC2 (stereo partly drawn) | 4 µg/mL (≈ 6.51 µM) | 4 µg/mL (≈ 6.51 µM) | 2 µg/mL (≈ 3.25 µM) | 4 µg/mL (≈ 6.51 µM) | 0.5 µg/mL (≈ 0.814 µM) | 0.5 µg/mL (≈ 0.814 µM) | – | – | – | – | – | – | – | – |
| O=C(CSc1cc(Cl)ccc1Cl)N[C@@H]1C(=O)N2C(C(=O)[O-])=C(C[n+]3ccc4c(O)cccc4c3)CS[C@H]12 | 1 µg/mL (≈ 1.73 µM) | 1 µg/mL (≈ 1.73 µM) | 1 µg/mL (≈ 1.73 µM) | 1 µg/mL (≈ 1.73 µM) | 1 µg/mL (≈ 1.73 µM) | 1 µg/mL (≈ 1.73 µM) | – | – | – | – | – | – | – | – |
| O=C(CSc1cc(Cl)ccc1Cl)N[C@@H]1C(=O)N2C(C(=O)[O-])=C(C[N+]34CCC(CC3)C(O)C4)CS[C@H]12 (stereo partly drawn) | 1 µg/mL (≈ 1.79 µM) | 1 µg/mL (≈ 1.79 µM) | 1 µg/mL (≈ 1.79 µM) | 1 µg/mL (≈ 1.79 µM) | 0.25 µg/mL (≈ 0.448 µM) | 0.25 µg/mL (≈ 0.448 µM) | – | – | – | – | – | – | – | – |
| O=C(C[N+]12CCN(CC1)CC2)N[C@@H]1C(=O)N2C(C(=O)[O-])=C(CSc3cc(Cl)ccc3Cl)CS[C@H]12 | 128 µg/mL (≈ 236 µM) | 128 µg/mL (≈ 236 µM) | 128 µg/mL (≈ 236 µM) | 128 µg/mL (≈ 236 µM) | 4 µg/mL (≈ 7.36 µM) | 4 µg/mL (≈ 7.36 µM) | – | – | – | – | – | – | – | – |
| NCCC(=O)NC1C[N+]2(CC3=C(C(=O)[O-])N4C(=O)[C@@H](NC(=O)CSc5cc(Cl)ccc5Cl)[C@H]4SC3)CCC1CC2 (stereo partly drawn) | 2 µg/mL (≈ 3.18 µM) | 4 µg/mL (≈ 6.36 µM) | 4 µg/mL (≈ 6.36 µM) | 4 µg/mL (≈ 6.36 µM) | 1 µg/mL (≈ 1.59 µM) | 1 µg/mL (≈ 1.59 µM) | – | – | – | – | – | – | – | – |
| NC(=O)COc1cccc2c[n+](CC3=C(C(=O)[O-])N4C(=O)[C@@H](NC(=O)CSc5cc(Cl)ccc5Cl)[C@H]4SC3)ccc12 | 2 µg/mL (≈ 3.16 µM) | 2 µg/mL (≈ 3.16 µM) | 2 µg/mL (≈ 3.16 µM) | 2 µg/mL (≈ 3.16 µM) | 1 µg/mL (≈ 1.58 µM) | 1 µg/mL (≈ 1.58 µM) | – | – | – | – | – | – | – | – |

Second part, led by results:

| MIC (Staphylococcus aureus [1]; [9]) | MIC (Staphylococcus aureus [2]; [9]) | MIC (Staphylococcus aureus [3]; [9]) | MIC (Staphylococcus aureus [4]; [9]) | MIC (Staphylococcus aureus [5]; [9]) | MIC (Staphylococcus aureus [6]; [9]) | SMILES | MIC (Staphylococcus aureus [1]) | MIC (Staphylococcus aureus [2]) | MIC (Staphylococcus aureus [3]) | MIC (Staphylococcus aureus [4]) | MIC (Staphylococcus aureus [5]) | MIC (Staphylococcus aureus [6]) | ED50 [7] | ED50 [8] |
| --- | --- | --- | --- | --- | --- | --- | --- | --- | --- | --- | --- | --- | --- | --- |
| 2 µg/mL (≈ 3.64 µM) | 4 µg/mL (≈ 7.28 µM) | 1 µg/mL (≈ 1.82 µM) | 2 µg/mL (≈ 3.64 µM) | 0.25 µg/mL (≈ 0.455 µM) | 0.5 µg/mL (≈ 0.91 µM) | O=C(CSc1cc(Cl)ccc1Cl)N[C@@H]1C(=O)N2C(C(=O)[O-])=C(C[n+]3ccn4ccccc43)CS[C@H]12 | – | – | – | – | – | – | – | – |
| 1 µg/mL (≈ 1.82 µM) | 2 µg/mL (≈ 3.63 µM) | 1 µg/mL (≈ 1.82 µM) | 2 µg/mL (≈ 3.63 µM) | 0.125 µg/mL (≈ 0.227 µM) | 0.125 µg/mL (≈ 0.227 µM) | O=C(CSc1cc(Cl)ccc1Cl)N[C@@H]1C(=O)N2C(C(=O)[O-])=C(C[n+]3cccc4[nH]cnc43)CS[C@H]12 | – | – | – | – | – | – | – | – |
| 1 µg/mL (≈ 1.82 µM) | 2 µg/mL (≈ 3.64 µM) | 2 µg/mL (≈ 3.64 µM) | 2 µg/mL (≈ 3.64 µM) | 1 µg/mL (≈ 1.82 µM) | 1 µg/mL (≈ 1.82 µM) | O=C(CSc1cc(Cl)ccc1Cl)N[C@@H]1C(=O)N2C(C(=O)[O-])=C(C[n+]3cccc4cc[nH]c43)CS[C@H]12 | – | – | – | – | – | – | – | – |
| 1 µg/mL (≈ 1.77 µM) | 2 µg/mL (≈ 3.54 µM) | 1 µg/mL (≈ 1.77 µM) | 2 µg/mL (≈ 3.54 µM) | 0.5 µg/mL (≈ 0.886 µM) | 0.5 µg/mL (≈ 0.886 µM) | O=C(CSc1cc(Cl)ccc1Cl)N[C@@H]1C(=O)N2C(C(=O)[O-])=C(C[n+]3cccc4c3CCCC4)CS[C@H]12 | – | – | – | – | – | – | – | – |
| 2 µg/mL (≈ 3.57 µM) | 2 µg/mL (≈ 3.57 µM) | 2 µg/mL (≈ 3.57 µM) | 2 µg/mL (≈ 3.57 µM) | 0.5 µg/mL (≈ 0.892 µM) | 0.5 µg/mL (≈ 0.892 µM) | O=C(CSc1cc(Cl)ccc1Cl)N[C@@H]1C(=O)N2C(C(=O)[O-])=C(C[n+]3ccc4ccccc4c3)CS[C@H]12 | – | – | – | – | – | – | – | – |
| 2 µg/mL (≈ 3.54 µM) | 4 µg/mL (≈ 7.09 µM) | 2 µg/mL (≈ 3.54 µM) | 4 µg/mL (≈ 7.09 µM) | 0.5 µg/mL (≈ 0.886 µM) | 0.5 µg/mL (≈ 0.886 µM) | O=C(CSc1cc(Cl)ccc1Cl)N[C@@H]1C(=O)N2C(C(=O)[O-])=C(C[n+]3ccc4c(c3)CCCC4)CS[C@H]12 | – | – | – | – | – | – | – | – |
